One test concerns the target c-Myc template DNA (c-myc quadruplex). The experiment in a line: Quadruplex binding / stop assay (Taq polymerase arrest, capillary electrophoresis). As to conditions: read-out: S DATA; Table 1D, stop assay data.
Consider `CN1CCCC1CCNC(=O)c1cn2c3c(c(NCCCCCCO)c(F)cc3c1=O)Oc1cc3ccccc3cc1-2` (stereo not drawn) [compound 1675], for which the IC50 is greater than 15 µM.

Consider `N=C(N)NCC1CCCC(CNC(=O)c2cn3c4c(c(NCCCN5CCOCC5)c(F)cc4c2=O)Oc2cc4ccccc4cc2-3)C1` (stereo not drawn) [compound 1651], for which the IC50 stood at 1 µM.

As for `CC1CCCN(CCCNC(=O)c2cn3c4c(c(N5CCC(N)C5)c(F)cc4c2=O)Oc2cc4ccccc4cc2-3)C1` (stereo not drawn) [compound 1712], the IC50 was greater than 15 µM.

As to `O=C(NCCN1CCCC1)c1cn2c3c(c(N4CCOCC4)c(F)cc3c1=O)Oc1cc(Cl)ccc1-2` [compound 1815], the IC50 is 10 µM.

As to `O=C(NCCCN1CCOCC1)c1cn2c3c(c(NCCCN4CCOCC4)c(F)cc3c1=O)Oc1ccccc1-2` [compound 1560], the IC50 was greater than 15 µM.

On to `CC(C)(C)OC(=O)NC1CCN(C(=O)c2cn3c4c(c(NCCN5CCOCC5)c(F)cc4c2=O)Oc2ccccc2-3)C1` (stereo not drawn) [compound 1607], for which the IC50 is greater than 15 µM.

Regarding `CN1CCCC1CCNC(=O)c1cn2c3c(c(NCCCCO)c(F)cc3c1=O)Oc1cc3ccccc3cc1-2` (stereo not drawn) [compound 1661], the IC50 stood at 1.75 µM.

For the compound `CCN(CC)CCCC(C)NC(=O)c1cn2c3c(c(NCCc4ccc(OC)c(OC)c4)c(F)cc3c1=O)Oc1cc3ccccc3cc1-2` (stereo not drawn) [compound 1758], the IC50 turned out to be 9.4 µM.

`CN1CCCC1CCNC(=O)c1cn2c3c(c(NCc4ccccc4N4CCCCC4)c(F)cc3c1=O)Oc1cc3ccccc3cc1-2` (stereo not drawn) [compound 1509]: the IC50 was greater than 15 µM.

Turning to `N=C(N)NCCNC(=O)c1cn2c3c(c(NCCN4CCCC4)c(F)cc3c1=O)Oc1cc3ccccc3cc1-2` [compound 1653], the IC50 stood at 0.34 µM.

Take `O=C(NCCN1CCCC1)c1cn2c3c(c(N4CC5CCCNC5C4)ccc3c1=O)Oc1ccccc1-2` (stereo not drawn) [compound 1731]: the IC50 is greater than 15 µM.

On to `CN1CCCC1CCNC(=O)c1cn2c3c(c(NCCc4c[nH]c5ccccc45)c(F)cc3c1=O)Oc1cc3ccccc3cc1-2` (stereo not drawn) [compound 1666], for which the IC50 came out at 1.75 µM.

In the case of `CC(C)(C)OC(=O)NC1CCN(C(=O)c2cn3c4c(c(N5CCC(NC(=O)OC(C)(C)C)C5)c(F)cc4c2=O)Oc2ccccc2-3)C1` (stereo not drawn) [compound 1586], the IC50 is greater than 15 µM.

`CN1CCCC1CCNC(=O)c1cn2c3c(c(SCCc4cnccn4)c(F)cc3c1=O)Oc1c-2ccc2ccccc12` (stereo not drawn) [compound 1780]: the IC50 is 5.2 µM.

With `CN1CCCC1CCNc1ccc2c(=O)c(C(=O)NCCCN3CCOCC3)cn3c2c1Oc1cc2ccccc2cc1-3` (stereo not drawn) [compound 1524], the IC50 came out at 1.75 µM.

For the compound `CN1CCCC1CCNC(=O)c1cn2c3c(c(SCCc4ccccn4)c(F)cc3c1=O)Oc1cc3ccccc3cc1-2` (stereo not drawn) [compound 1781], the IC50 amounted to 5.5 µM.

As to `CC(C)C(CO)Nc1c(F)cc2c(=O)c(C(=O)NCCC3CCCN3C)cn3c2c1Oc1cc2ccccc2cc1-3` (stereo not drawn) [compound 1747], the IC50 was greater than 15 µM.

Still in this test, the particulars now being: read-out: Stop Data c-Myc μM; concentration at which 50% of the DNA was arrested (arrested:full-length 1:1).
Take `Nc1c(F)c(N2CCC(N)C2)c2c3c1c(=O)c(C(=O)NCCN1CCCC1)cn3-c1cc3ccccc3cc1O2` (stereo not drawn) [compound 233]: the IC50 is 1.75 µM.

Turning to `CN1CCCC1CCNC(=O)c1cn2c3cc4c(cc3oc3c(N5CC[C@H](NC(=O)OC(C)(C)C)C5)c(F)cc(c1=O)c32)c(=O)c1ccccc14` (stereo partly drawn) [compound 421], the IC50 turned out to be 0.75 µM.

For `CCOC(CCCNc1c(F)cc2c(=O)c(C(=O)NCCC3CCCN3C)cn3c2c1Oc1cc2ccccc2cc1-3)OCC` (stereo not drawn) [compound 463], the IC50 came out at 0.75 µM.

With `COc1ccc(OC)c(CCNc2c(F)cc3c(=O)c(C(=O)NCCC4CCCN4C)cn4c3c2Oc2cc3ccccc3cc2-4)c1` (stereo not drawn) [compound 291], the IC50 came to 1.75 µM.

Regarding `NC1CCN(c2c(F)cc3c(=O)c(C(=O)NC4CCN(Cc5ccccc5)CC4)cn4c3c2Oc2cc3ccccc3cc2-4)C1` (stereo not drawn) [compound 245], the IC50 came to 1.75 µM.

On to `CC(C)NCCCNc1c(F)cc2c(=O)c(C(=O)N3CCOCC3)cn3c2c1Oc1cc2ccccc2cc1-3` [compound 316], for which the IC50 worked out at 1 µM.

Regarding `CN1CCCC1CCNC(=O)c1cn2c3c(c(Nc4ccccc4N4CCOCC4)c(F)cc3c1=O)Oc1cc3ccccc3cc1-2` (stereo not drawn) [compound 264], the IC50 came out at 1.75 µM.

Turning to `CN1CCN(CCCNc2c(F)cc3c(=O)c(C(=O)N4CC[C@@H](NC(=O)OC(C)(C)C)C4)cn4c3c2Oc2cc3ccccc3cc2-4)CC1` [compound 61], the IC50 is 2.5 µM.

`CC1CCCCN1CCCNc1c(F)cc2c(=O)c(C(=O)N3CCOCC3)cn3c2c1Oc1cc2ccccc2cc1-3` (stereo not drawn) [compound 393]: the IC50 turned out to be 0.75 µM.

Consider `CN(C)CCCCNc1c(F)cc2c(=O)c(C(=O)NCCN3CCCC3)cn3c2c1Oc1cc2ccccc2cc1-3` [compound 318], for which the IC50 came to 1 µM.

For `CN1CCN(CCCNC(=O)c2cn3c4cc5c(=O)c6ccccc6c(=O)c5cc4oc4c(F)c(F)cc(c2=O)c43)CC1` [compound 344], the IC50 stood at 0.9 µM.

Turning to `CC(C)(C)OC(=O)N[C@@H]1CCN(c2c(F)cc3c(=O)c(C(=O)NCCCCN)cn4c3c2Oc2cc3ccccc3cc2-4)C1` [compound 210], the IC50 turned out to be 1.75 µM.

As to `CN1CCC(N(C)C(=O)c2cn3c4c(c(N5CCC(N)C5)c(F)cc4c2=O)Oc2cc4ccccc4cc2-3)CC1` (stereo not drawn) [compound 198], the IC50 turned out to be 1.75 µM.

In the case of `CCCCN(CCCC)CCCNc1c(F)cc2c(=O)c(C(=O)N3CCOCC3)cn3c2c1Oc1cc2ccccc2cc1-3` [compound 45], the IC50 was determined as 2.5 µM.

With `CN1CCN(CCCNC(=O)c2cn3c4c(c(NCCN5CCCC5)c(F)cc4c2=O)Oc2c-3ccc3ccccc23)CC1` [compound 399], the IC50 stood at 0.75 µM.

Turning to `CC(C)(C)OC(=O)NC1CCN(C(=O)c2cn3c4c(c(NCCCN5CCOCC5)c(F)c(N)c4c2=O)Oc2cc4ccccc4cc2-3)C1` (stereo not drawn) [compound 219], the IC50 amounted to 1.75 µM.

`N=C(N)NCCNC(=O)c1cn2c3c(c(N4CC5CCCNC5C4)c(F)cc3c1=O)Oc1cc3ccccc3cc1-2` (stereo not drawn) [compound 471]: the IC50 came to 0.64 µM.

Regarding `Nc1ccc(CCNC(=O)c2cn3c4c(c(N5CCC(N)C5)c(F)cc4c2=O)Oc2cc4ccccc4cc2-3)cc1` (stereo not drawn) [compound 193], the IC50 was 1.75 µM.

With `CN(C)CCCCNc1c(F)cc2c(=O)c(C(=O)O)cn3c2c1Oc1cc2ccccc2cc1-3` [compound 8], the IC50 amounted to 1.75 µM.

With `CCCCOCCCNc1c(F)cc2c(=O)c(C(=O)NCCC3CCCN3C)cn3c2c1Oc1cc2ccccc2cc1-3` (stereo not drawn) [compound 1470], the IC50 was determined as 1.75 µM.

On to `CN(C)CCCCNC(=O)c1cn2c3c(c(NCCCN4CCN(C)CC4)c(F)cc3c1=O)Oc1cc3c(cc1-2)oc1ccccc13` [compound 153], for which the IC50 came out at 1.75 µM.

Regarding `O=C(NCCN1CCOCC1)c1cn2c3c(c(NCCN4CCCC4)ccc3c1=O)Oc1cc3ccccc3cc1-2` [compound 268], the IC50 stood at 1.75 µM.

`CN1CCCC1CCNc1c(F)cc2c(=O)c(C(=O)NCCN3CCOCC3)cn3c2c1Oc1c-3ccc2ccccc12` (stereo not drawn) [compound 134]: the IC50 is 1.75 µM.

On to `CN1CCCC1CCNc1c(F)cc2c(=O)c(C(=O)N3CCOCC3)cn3c2c1Oc1cc2ccccc2cc1-3` (stereo not drawn) [compound 495], for which the IC50 turned out to be 0.42 µM.

On to `O=C(O)c1cn2c3c(c(NCCN4CCCC4)c(F)cc3c1=O)Oc1cc3ccccc3cc1-2` [compound 2], for which the IC50 was found to be 2.5 µM.

In the case of `CN1CCCC1CCNC(=O)c1cn2c3c(c(F)c(F)cc3c1=O)Oc1cc3ccccc3cc1-2` (stereo not drawn) [compound 101], the IC50 came out at 2.25 µM.

Consider `CN1CCCC1CCNc1c(F)cc2c(=O)c(C(=O)NCCN3CCOCC3)cn3c2c1Oc1cc2ccccc2cc1-3` (stereo not drawn) [compound 67], for which the IC50 was determined as 2.5 µM.

On to `CN1CCCC1CCNCC(=O)N[C@@H]1CCN(c2c(F)cc3c(=O)c(C(=O)N4CCCCC4)cn4c3c2Oc2cc3c(cc2-4)oc2ccccc23)C1` (stereo partly drawn) [compound 413], for which the IC50 was 0.75 µM.

On to `CN(C)CCCCNC(=O)c1cn2c3c(c(NCCCN4CCN(C)CC4)ccc3c1=O)Oc1cc3ccccc3cc1-2` [compound 456], for which the IC50 is 0.75 µM.

Turning to `CN(C)CCCCNc1c(F)cc2c(=O)c(C(=O)O)cn3c2c1Oc1c-3ccc2ccccc12` [compound 4], the IC50 is 1.76 µM.

With `CN(C)CCCCNC(=O)c1cn2c3c(c(N4CC[C@@H](NC(=O)CCN5CCOCC5)C4)c(F)cc3c1=O)Oc1cc3c(cc1-2)oc1ccccc13` [compound 176], the IC50 stood at 1.75 µM.

On to `CN(C)CCCCNc1c(F)cc2c(=O)c(C(=O)NCCN3CCCC3)cn3c4cc5oc6cc([N+](=O)[O-])ccc6[nH]c5cc4oc1c23` [compound 586], for which the IC50 stood at 0.18 µM.

Regarding `NC1CCN(c2c(F)cc3c(=O)c(C(=O)NCc4ccccc4N4CCCCC4)cn4c3c2Oc2cc3ccccc3cc2-4)C1` (stereo not drawn) [compound 247], the IC50 was found to be 1.75 µM.

`O=C(NCCCN1CCOCC1)c1cn2c3cc4c(cc3oc3c(NCCN5CCOCC5)c(F)cc(c1=O)c32)c(=O)c1ccccc14` [compound 205]: the IC50 worked out at 1.75 µM.

As to `Nc1c(F)c(F)c2c3c1c(=O)c(C(=O)O)cn3-c1cc3ccccc3cc1O2` [compound 13], the IC50 is 1.75 µM.

In the case of `CN(C)CCCCNC(=O)c1cn2c3cc4oc5cc([N+](=O)[O-])ccc5[nH]c4cc3oc3c(NCCC4CCCN4C)c(F)cc(c1=O)c32` (stereo not drawn) [compound 585], the IC50 worked out at 0.18 µM.

For the compound `O=C(c1cn2c3c(c(NC4CCNC4)c(F)cc3c1=O)Oc1cc3ccccc3cc1-2)N1CCOCC1` (stereo not drawn) [compound 116], the IC50 is 1.75 µM.

Consider `CN1CCCC1CCNC(=O)c1cn2c3c(c(NCCN4CCOCC4)c(F)cc3c1=O)Oc1cc3c(cc1-2)oc1ccccc13` (stereo not drawn) [compound 147], for which the IC50 was determined as 1.75 µM.

With `CC(C)(C)OC(=O)N[C@H]1CCN(c2c(F)cc3c(=O)c(C(=O)NCCN4CCOCC4)cn4c5cc6c(cc5oc2c34)c(=O)c2ccccc26)C1` [compound 208], the IC50 amounted to 1.75 µM.

On to `CN1CCCC1CCNC(=O)c1cn2c3c(c(NCCN4CCOCC4)c(F)cc3c1=O)Oc1c-2ccc2ccccc12` (stereo not drawn) [compound 131], for which the IC50 turned out to be 1.75 µM.

On to `CC1CCCCN1CCCNc1c(F)cc2c(=O)c(C(=O)NCCC3CCCN3C)cn3c2c1Oc1cc2ccccc2cc1-3` (stereo not drawn) [compound 557], for which the IC50 turned out to be 0.375 µM.

Consider `CN(C)CCCCNC(=O)c1cn2c3c(c(N4CC[C@@H](N)C4)c(F)cc3c1=O)Oc1cc3ccccc3cc1-2` [compound 567], for which the IC50 amounted to 0.25 µM.

Regarding `CN1CCN(CCCNC(=O)c2cn3c4cc5c(=O)c6ccccc6c(=O)c5cc4oc4c(N5CCC(NC(=O)OC(C)(C)C)C5)c(F)cc(c2=O)c43)CC1` (stereo not drawn) [compound 169], the IC50 is 1.75 µM.
